# Assay results from PMC12089418, “Quantifying VMAT2 target occupancy at effective valbenazine doses and comparing to a novel VMAT2 inhibitor: a translational PET study” (Neuropsychopharmacology, 2025).
# Read-outs that look alike come from different tables or passages of the source.
# Columns and labels:
# VMAT2 [1] = molecular target: T1, VMAT2 (Macaca fascicularis, UniProt A0A2K5UVB8); set-up: method as in PMID 32122751; details: bolus administration; radioligand [+]-α-[11C]dHTBZ; cited from earlier work
# Target sequence in this assay (A0A2K5UVB8 1-517): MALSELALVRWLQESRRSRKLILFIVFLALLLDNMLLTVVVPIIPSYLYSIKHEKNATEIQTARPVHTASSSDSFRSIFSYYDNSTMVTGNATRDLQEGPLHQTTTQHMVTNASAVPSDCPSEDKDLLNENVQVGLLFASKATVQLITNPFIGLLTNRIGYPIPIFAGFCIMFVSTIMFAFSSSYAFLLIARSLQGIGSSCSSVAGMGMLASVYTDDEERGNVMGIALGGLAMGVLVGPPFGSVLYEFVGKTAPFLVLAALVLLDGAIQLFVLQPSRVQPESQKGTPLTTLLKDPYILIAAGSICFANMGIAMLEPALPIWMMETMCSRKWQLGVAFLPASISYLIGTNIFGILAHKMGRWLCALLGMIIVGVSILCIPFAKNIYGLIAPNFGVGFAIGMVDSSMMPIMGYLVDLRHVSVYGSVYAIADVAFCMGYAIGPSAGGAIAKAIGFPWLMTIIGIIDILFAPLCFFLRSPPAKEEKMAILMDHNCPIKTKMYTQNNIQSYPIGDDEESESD
# [2] = Plasma protein binding by equilibrium dialysis, cynomolgus monkey plasma; format: in vitro ADME, cynomolgus monkeys; details: both sexes, pooled plasma, read-out: fraction unbound in plasma (fu_p)
# other targets = tested on: other targets; set-up: method as in PMID 28776237, PMID 28404690, PMID 29680151; details: cited from earlier work
# VMAT2 [3] = details: cited from earlier work
# VMAT2 [4] = molecular target: T2, VMAT2 (Rattus norvegicus, UniProt Q01827); assay: Rat NBI-98782 PK-%TO study; format: in vivo; details: Data on file
# T2 construct: from tissue; host or cells: rats dosed in vivo; tissue and read-out method not described
# T2 sequence (Q01827 whole entry): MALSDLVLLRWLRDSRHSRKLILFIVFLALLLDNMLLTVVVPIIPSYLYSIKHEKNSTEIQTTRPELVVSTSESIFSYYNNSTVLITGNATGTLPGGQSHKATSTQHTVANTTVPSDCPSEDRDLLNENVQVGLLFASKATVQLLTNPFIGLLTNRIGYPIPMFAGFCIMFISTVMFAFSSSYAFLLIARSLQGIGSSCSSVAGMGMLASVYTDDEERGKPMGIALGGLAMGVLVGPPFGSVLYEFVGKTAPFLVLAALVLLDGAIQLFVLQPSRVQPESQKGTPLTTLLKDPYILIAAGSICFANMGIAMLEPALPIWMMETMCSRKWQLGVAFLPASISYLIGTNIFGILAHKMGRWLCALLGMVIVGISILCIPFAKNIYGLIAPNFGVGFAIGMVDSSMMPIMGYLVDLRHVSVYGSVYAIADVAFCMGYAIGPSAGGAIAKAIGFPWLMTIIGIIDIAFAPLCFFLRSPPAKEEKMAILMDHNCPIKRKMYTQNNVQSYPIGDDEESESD
# [5] = Human steady-state plasma exposure (population PK / superposition); format: in vivo; details: 60 mg NBI-750142 BID
# Method: (§1) Valbenazine human plasma exposure metrics in patients were estimated with a population pharmacokinetic (PK) analysis and plasma protein binding (PPB) data. […] These steady-state concentrations, in conjunction with free EC50 from NHP PET for blocking compounds was used to estimate %TO in humans. Plasma concentrations of NBI-750142 following 60 mg BID dose were estimated using plasma concentrations following a single oral dose of 60 mg NBI-750142 using the principle of superposition.
# VMAT2 [6] = molecular target: T3, VMAT2 (Homo sapiens, UniProt Q05940); assay: In vitro Ki for affinity to VMAT2, human; format: binding
# T3 sequence (Q05940 whole entry): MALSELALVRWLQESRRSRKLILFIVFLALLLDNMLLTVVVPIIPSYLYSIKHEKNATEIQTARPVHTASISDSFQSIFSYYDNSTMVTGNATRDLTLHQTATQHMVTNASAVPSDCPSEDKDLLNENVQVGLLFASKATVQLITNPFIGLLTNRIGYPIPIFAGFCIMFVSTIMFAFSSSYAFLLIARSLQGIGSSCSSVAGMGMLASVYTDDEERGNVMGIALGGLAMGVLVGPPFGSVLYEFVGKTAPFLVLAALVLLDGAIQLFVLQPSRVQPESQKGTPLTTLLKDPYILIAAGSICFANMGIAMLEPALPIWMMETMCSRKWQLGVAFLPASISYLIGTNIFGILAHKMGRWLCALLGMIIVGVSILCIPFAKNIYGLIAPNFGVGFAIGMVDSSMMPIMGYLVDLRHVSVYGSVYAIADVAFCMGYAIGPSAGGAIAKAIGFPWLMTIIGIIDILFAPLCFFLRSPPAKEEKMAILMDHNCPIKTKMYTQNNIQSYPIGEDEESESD
# Text: Ki values for compound affinity to VMAT2 were generated from human platelet homogenates as described in [18].
# VMAT2 [7] = molecular target: T1, VMAT2; assay: NHP [18F]AV-133 PET target occupancy; format: in vivo, cynomolgus macaques; details: for EC50: Emax model
# Method: Each NHP PET study enrolled two to three cynomolgus macaques, (3.8–9 year age range).
# NHPs fasted overnight before individual PET scans. For the NBI-750142 study, 60 min prior to NBI-750142 or vehicle administration, animals were sedated with an intramuscular injection of 2 mg/kg Aflaxan, 0.02 mg/kg dexmedetomidine, and 0.3 mg/kg midazolam. The animals were intubated with an endotracheal tube for continued delivery of oxygen (1.5–2.5 L) and 1.0–2.5% isoflurane for anesthesia maintenance.
# The animals were intubated with an endotracheal tube for continued delivery of isoflurane for anesthesia maintenance.
# For all NHP PET scans, blocking compound was administered with a bolus loading dose, followed by constant intravenous infusion over 3 h, with the goal of achieving steady-state plasma exposure. One hour after blocking compound or vehicle administration, [^18F]AV-133 was administered as an intravenous bolus. Dynamic PET data were acquired with a MicroPET Focus-220 camera (Siemens Microsystems, Knoxville, TN) for 120 min post injection and reconstructed into a series of 33 frames and all standard corrections were applied for normalization, randoms, scatter, and attenuation. Brain PET images were analyzed using PMOD software package v3.802 (PMOD Technologies, Zurich, Switzerland). […]
# During each scan, 1 mL whole blood PK samples were collected (in K2 EDTA tubes) at multiple time points. Blocking compound concentration in plasma samples were analyzed using validated LC-MS/MS bioanalytical methods. […] The average plasma concentration, Cave, was calculated as the mean compound concentration of samples collected during the PET scan and used for PK-TO analysis.
# Time-activity curves were generated for the caudate, putamen, and cerebellum. Non-displaceable binding potential (BPND) was estimated using non-invasive Logan graphical analysis with cerebellum as reference region. %TO of the blocking compound was calculated in the caudate and putamen using baseline and post-dose BPND as follows:1 %TO=1−BPNDpost−block/BPNDbaselinex100 […]
# Target sequence in this assay (A0A2K5UVB8 entry or part of it): as the sequence (A0A2K5UVB8 1-517) above
# VMAT2 [8] = molecular target: T3, VMAT2; assay: Human [18F]AV-133 PET target occupancy; format: in vivo; set-up: from tissue; host or cells: brain of healthy male volunteers (caudate, putamen); details: for URF (upregulation factor): upregulation model
# Text: The human PET study was approved by the IRB (Approval number: Pro00037529). All participants gave their written informed consent prior to participation in the study. Twelve healthy male subjects were enrolled in cohorts of 2–4 subjects each. Subjects were 29–54 years of age (mean of 43.2 years), and the study had standard inclusion/exclusion criteria, with attention to avoiding drugs which may interfere with the [^18F]AV-133 measurements or with NBI-750142 metabolism.
# Subjects fasted during the study and received a small, predefined snack at least 2 h prior to oral dosing of NBI-750142. Consumption of alcohol, caffeine, nicotine or cannabis products, and grapefruit or grapefruit juice was prohibited during the study. One PET scan occurred ~1.5 h following administration of NBI-750142, and a second ~18 h post NBI-750142. These scans are referred to as “T1” and “T2,” respectively, throughout this study (Supplementary Fig. 1). T1 scans were timed to occur at approximately the time to reach maximal plasma concentration, Tmax, and provide the closest comparison to the NHP PET measurements. T2 scans should contribute data points to the lower NBI-750142 concentration portion of the PK-%TO curve and potentially reveal dose-response hysteresis (reviewed in ref. [22]). A total of five cohorts were enrolled in the study in an adaptive design, with two subjects enrolled in each cohort, except for four subjects in cohort 5. NBI-750142 doses in these cohorts ranged from 10 to 200 mg. Blood samples were obtained from each participant immediately before [^18F]AV-133 injection and just before the end of the PET scan in order to quantify plasma concentration of NBI-750142. The Cave derived from these two values was used to compare against %TO.
# Prior to the radiotracer injection and PET, a low-dose CT scan was collected for attenuation correction. Subjects were administered a single dose of [^18F]AV-133 intravenously over 3 min using an infusion pump (~3.33 mL per min) through a venous catheter followed by a 10 mL saline flush. Dynamic PET imaging of the brain was acquired over 120 min following radiotracer injection on a Siemens Biograph 6 PET/CT camera with the following frame times: 6 × 30 s, 4 × 1 min, 4 × 2 min, 21 × 5 min (0–120 min). Images were reconstructed with a 168 × 168 × 81 matrix (pixel size of 2.03 mm × 2.03 mm) using an iterative reconstruction algorithm (OSEM 4 iterations, 16 subsets) and a post hoc Gaussian filter FWHM = 3 mm. Standard corrections for random, scatter, system dead time, and attenuation provided by the camera manufacturer were performed. A T1 MRI scan was acquired from eligible subjects as part of the screening visit, to identify and delineate brain anatomical regions of interest for individual PET images. MRI scans were obtained on a Siemens Espree 1.5 Tesla clinical magnet.
# Reconstructed PET images were motion and decay corrected, realigned to the subject MRI and subsequently normalized into standard MNI (Montreal Neurological Institute) space using PMOD. Volumes of interest (VOIs) were defined from a template (Hammers, N30R83). Average activity concentration within each VOI was determined and time activity curves (TACs) were generated. TACs were extracted from the following VOIs: caudate and putamen (striatum), and occipital cortex. BPND, the primary outcome measure, was estimated with noninvasive Logan graphical analysis […] 1. The relationship between %TO (averaged between caudate and putamen) and average plasma concentration during the scan was analyzed with an Emax model (Eq. 2) and an upregulation model (Eq. 4), which incorporates an upregulation factor (URF; [24]).4 %TO=Drug−EC50Drug/Drug+EC50(URF−1)/Drug+EC50
# [9] = Plasma protein binding by equilibrium dialysis, human plasma; format: in vitro ADME, humans; details: both sexes, pooled plasma, read-out: fraction unbound in plasma (fu_p)
# VMAT2 [10] = molecular target: T3, VMAT2; assay: Estimated human VMAT2 %TO from human PK and NHP PET free EC50; format: in vivo; set-up: from tissue; host or cells: brain of healthy male volunteers (caudate, putamen)
# Method: as §1
# VMAT2 [11] = molecular target: T1, VMAT2; assay: In vitro Ki for affinity to VMAT2, NHP; format: binding
# Target sequence in this assay (A0A2K5UVB8 1-517): as above
# VMAT2 [12] = molecular target: T1, VMAT2; assay: [18F]AV-133 baseline PET test-retest; format: in vivo, cynomolgus macaques; details: 2 NHPs, caudate and putamen, baseline scans ~5 months apart
# Method: Test-retest variability of BPND in the caudate and putamen were calculated as3 TRTV%=100xBPND1−BPND2/(BPND1+BPND2)/2
# Target sequence in this assay (A0A2K5UVB8 entry or part of it): as the sequence (A0A2K5UVB8 1-517) above
# TD patients = tested on: TD patients; set-up: method as in PMID 28320223; details: 6 weeks, cited from earlier work
# [13] = tested on: chorea associated with Huntington’s Disease; set-up: method as in PMID 37210099; details: valbenazine 80 mg; cited from earlier work
# [14] = estimated from single 60 mg oral dose by superposition
# [15] = 60 mg NBI-750142 BID, NHP PET free EC50 6.7 ng/mL
# [16] = 40 mg VBZ QD, from free NBI-98782 and NHP PET EC50
# [17] = 80 mg VBZ QD, from free NBI-98782 and NHP PET EC50
compound,measurement,setting,value
"COc1cc2c(cc1OC)C1CC(O)C(CC(C)C)CN1CC2 (stereo not drawn) [NBI-98782, (+)-α-dHTBZ (dihydrotetrabenazine)]",ED50 (dose vs VMAT2 occupancy),VMAT2 [1],0.055 mg/kg
same,fraction unbound,[2],0.4
same,inhibition of other targets,other targets,minimal to non-detectable inhibition
same,potency at VMAT2,VMAT2 [3],nanomolar potency
same,"NBI-98782 PK-%TO relationship, valbenazine-dosed vs NBI-98782-dosed rats",VMAT2 [4],nearly identical
COc1cc2c(cc1OC)[C@H]1CN(C)[C@H](CC(C)(C)C)CN1CC2 [NBI-750142],"Cavg, total",[5]; [14],27.7 ng/mL
same,"Cmax, total",[5]; [14],48.1 ng/mL
same,"Ctrough, total",[5]; [14],7.6 ng/mL
same,"Cavg, free",[5]; total x fu_p,13.9 ng/mL
same,"Cmax, free",[5]; total x fu_p,24.1 ng/mL
same,"Ctrough, free",[5]; total x fu_p,3.8 ng/mL
same,fraction unbound,[2],0.59
same,Ki,VMAT2 [6],27.7 nM
same,EC50:Ki Ratio,"VMAT2 [7]; NHP, free PET EC50 over in vitro Ki",1.1
same,EC50,"VMAT2 [7]; total compound Cave during 120-min scan, read-out: EC50 (average total plasma concentration vs %TO) (converted)",33.1 nM
same,EC50,"VMAT2 [7]; total concentration multiplied by fu_p, read-out: free EC50 (free plasma concentration vs %TO) (converted)",20.2 nM
same,EC50:Ki Ratio,"VMAT2 [8]; Human, free PET EC50 over in vitro Ki",1.4
same,EC50,"VMAT2 [8]; T1 and T2, occipital cortex reference, read-out: EC50, Emax model (converted)",105 nM
same,URF (upregulation factor),"VMAT2 [8]; T1 and T2, white matter reference",1.9
same,EC50,"VMAT2 [8]; T1 and T2, white matter reference (post hoc), read-out: EC50, Emax model (converted)",93.2 nM
same,EC50,"VMAT2 [8]; T1 and T2, white matter reference (post hoc), read-out: EC50, upregulation model (converted)",33.1 nM
same,EC50,"VMAT2 [8]; T1 and T2 data, occipital cortex reference, read-out: EC50, upregulation model (converted)",18.9 nM
same,URF (upregulation factor),"VMAT2 [8]; T1 and T2 data, occipital cortex reference",2.8
same,EC50,"VMAT2 [8]; T1 scans (~[…] post oral dose), Emax model, occipital cortex reference, read-out: total EC50 (average total plasma concentration vs %TO) (converted)",75.8 nM
same,EC50,"VMAT2 [8]; T1 scans, Emax model, WM-derived BPND (post hoc), read-out: total EC50, white matter reference (converted)",74.6 nM
same,EC50,"VMAT2 [8]; T1 scans, Emax model, total concentration multiplied by fu_p, read-out: free EC50 (free plasma concentration vs %TO) (converted)",37.9 nM
same,VMAT2 occupancy at T2,"VMAT2 [8]; T2 scans ~18 h post NBI-750142, occipital cortex reference",negative occupancy
same,average striatal occupancy at T2,"VMAT2 [8]; T2 time points (~18 h post dose), WM-derived values",0.09%
same,fraction unbound,[9],0.5
same,VMAT2 %TO estimations,"VMAT2 [10]; 60 mg NBI-750142 BID (acceptable doses), Ctrough to Cmax",36–78%
same,VMAT2 %TO at Cavg,VMAT2 [10]; [15],67%
same,VMAT2 %TO at Cmax,VMAT2 [10]; [15],78%
same,VMAT2 %TO at Ctrough,VMAT2 [10]; [15],36%
same,Ki,VMAT2 [11],18.3 nM
COc1cc2c(cc1OCCC[18F])CCN1C[C@@H](CC(C)C)[C@H](O)C[C@H]21 [[^18F]AV-133],test-retest variability of baseline BPND,VMAT2 [12],< 10%
COc1cc2c(cc1OC)[C@H]1C[C@@H](OC(=O)[C@@H](N)C(C)C)[C@H](CC(C)C)CN1CC2 [valbenazine],potency at VMAT2 relative to NBI-98782 (fold less potent),VMAT2 [3]; parent compound vs active metabolite,~ 40 fold
same,VMAT2 %TO at Cavg,VMAT2 [10]; [16],~ 80%
same,VMAT2 %TO at Cmax,VMAT2 [10]; [16],82%
same,VMAT2 %TO at Ctrough,VMAT2 [10]; [16],73%
same,VMAT2 %TO at Cavg,"VMAT2 [10]; 40 mg VBZ QD, from free NBI-98782 and NHP PET EC50, listed as VBZ",79%
same,VMAT2 %TO at Cavg,VMAT2 [10]; [17],89%
same,VMAT2 %TO at Cmax,VMAT2 [10]; [17],91%
same,VMAT2 %TO at Ctrough,VMAT2 [10]; [17],above 85%
same,VMAT2 %TO at Ctrough,"VMAT2 [10]; 80 mg VBZ QD, from free NBI-98782 and NHP PET EC50, listed as VBZ",85%
same,VMAT2 %TO estimations at steady state,"VMAT2 [10]; 80 mg valbenazine daily, Ctrough to Cmax",~ 90%
same,VMAT2 occupancy achieved by once daily valbenazine treatment,VMAT2 [10]; 40 and 80 mg once daily,80–90%
same,"Cohen's d, AIMS score reduction",TD patients; valbenazine 40 mg once daily oral,0.5
same,patients with robust AIMS response (>50% reduction from baseline),TD patients; valbenazine 40 mg,24%
same,"Cohen's d, AIMS score reduction",TD patients; valbenazine 80 mg once daily oral,0.9
same,patients with robust AIMS response (>50% reduction from baseline),TD patients; valbenazine 80 mg,40%
same,"Cohen's d, chorea",[13],0.9
